We go through two molecules from US6906061B2, “Pharmaceutical agent containing Rho kinase inhibitor” (Mitsubishi Pharma Corporation, priority 1996, dated 2005).

For test [1], the system named is hind limb skin blood flow. Description: Peripheral blood flow increasing action in STZ-induced diabetic rats. The class given is in vivo, rat. Particulars: intravenous, 1 μg. The method, boiled down: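 Male SD rats (200-300 g) made diabetic with STZ 65 mg/kg i.v.; one month later, under pentobarbital anesthesia, compound given i.v. via carotid catheter. Hind limb skin blood flow measured by laser flowmeter, expressed as percent increase over pre-dose flow.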

For test [2], the system named is BALB/c spleen cells stimulated with C57BL/6 spleen cells. Description: Inhibition of mouse allogenic mixed lymphocyte reaction. The conditions noted are these: Mus musculus, Lymphocyte, 96 h; 4 days culture, MTT; read-out: Mouse allogenic MLR inhibitory activity IC50. It is filed as cell-based. How it is done: Inhibition of Mouse Allogenic Mixed Lymphocyte Reaction
A mouse allogenic mixed lymphocyte reaction (hereinafter to be referred to as mouse allogenic MLR) was performed by mixed culture (equal ratio) of the spleen cell of BALB/c mice as the reaction cell and the spleen cell of C57BL/6 mice treated with mitomycin C as stimulated cell.
The reaction cells were prepared by the following method. Spleen was removed from 5-6 week old BALB/c mice and treated with RPMI1640 medium (containing kanamycin sulfate (60 μg/ml), penicillin G potassium (100 units/ml), N-2-hydroxyethylpiperazine-N′-2-ethanesulfonate (10 mM), 0.1% sodium hydrogencarbonate and L-glutamin (2 mM)) supplemented with 5% heat inactivated fetal bovine serum (FBS) to give a single cell suspension of the spleen cell. After hemolysis treatment, the suspension was adjusted to10^7 cells/ml with RPMI1640 medium containing 10^−4 M 2-mercaptoethanol and 10% FBS and used as a reaction cell suspension.
The reaction cell suspension (50 μl) prepared by the above method, stimulated cell suspension (50 μl) and the test compound (100 μl) prepared using RPMI1640 medium containing 10% FBS were added to a 96 well plate and incubated at 37° C. under 5% CO2 gas, 95% air for 4 days.
A pigment assay using 3-(4,5-dimethylthiazol-2-yl)-2,5-diphenyltetrazolium bromide (MTT) was applied for the determination of lymphocyte transformation reaction.
After the completion of culture, the supernatant (100 μl) in each well was removed, and 5 mg/ml MTT solution (20 μl) was added to each well, which was followed by incubation at 37° C. for 4 hours. Then, a 0.01 N hydrochloric acid solution (100 μl) containing 10% sodium dodecyl sulfate was added and the mixture was incubated at 37° C. overnight. The resulting purple crystals of formazan was dissolved and absorbance at 550 nm was measured using a microplate absorption meter, which was used as the index of lymphocyte transformation reaction of the mouse allogenic MLR. The inhibition of mouse allogenic MLR was evaluated by calculating the inhibition percentage by the following formula The results are shown in Table 7.

For test [3], the target named is T1, Human Platelet Rho Kinase (p160ROCK) (Homo sapiens, UniProt Q13464).
T1 construct: Human platelet p160ROCK was isolated by the method of Ishizaki et al; from tissue; host or cells: human platelets
Description: Rho kinase inhibitory action (inhibition of human platelet Rho kinase (p160ROCK)). The conditions noted are these: histone substrate, 1 μM ATP. The class given is biochemical. Here is the method: Rho Kinase Inhibitory Action (Inhibition of Human Platelet Rho Kinase (p160ROCK))
(§1) Kinase assay included the following steps. That is, a reaction mixture (total amount 30 μl) containing 50 mM Hepes-NaOH (pH=7.4), 10 mM MgCl2, 5 mM MnCl2, 2 mM dithiothreitol, 0.02% Brij35, 1 μM [γ-^32P]ATP, 330 μg/ml histone, p160ROCK (2 μl) isolated by the method of Ishizaki et al. and the test compound was incubated at 30° C. for 20 minutes. The solution was mixed with a 1/3 amount of 4× Laemmli sample buffer, boiled for 5 minutes and applied to SDS-PAGE. The gel was stained with Coomassie Brilliant Blue and dried. The band of histone was cut out and assayed for radioactivity.

The target of test [4] is T2, p160ROCK (Homo sapiens, UniProt Q13464).
T2 construct: made in house; host or cells: COS cells (transient transfection, immunoprecipitated with 9E10 anti-myc antibody on protein G-Sepharose)
Nature of the test: Inhibition of p160ROCK (myc-tagged, expressed in COS cells). The conditions noted are these: enzyme expressed in COS cells. The class given is biochemical. How it is done:
as §1
(§2) Rho Kinase Inhibitory Action (Inhibition of p160ROCK and ROCKII)
(§3) COS cells were seeded in a 3.5 cm dish and incubated overnight. […] After incubation for 20 hours, the cells were washed once with ice-cooled PBS, and the cells were lysed on ice for 20 minutes using a lysis buffer (20 mM Tris-HCl (pH=7.5), 1 mM EDTA, 1 mM EGTA, 5 mM MgCl2, 25 mM NaF, 10 mM β glycerophosphate, 5 mM sodium pyrophorphate, 0.2 mM phenylmethylsulfonyl fluoride, 2 mM dithiothreitol, 0.2 mM sodium vanadate, 0.05% Triton X-100, 0.1 μM calyculin A). The lysate was centrifuged at 10,000×g for 10 minutes and the supernatant was recovered. […] Then, protein G-Sepharose was added and the mixture was shaken for 2 more hours. […]

The target in test [5] is T3, ROCKII (Mus musculus, UniProt P70336).
T3 construct: made in house; host or cells: COS cells (transient transfection, immunoprecipitated with 9E10 anti-myc antibody on protein G-Sepharose)
Nature of the test: Inhibition of ROCKII (myc-tagged, expressed in COS cells). Particulars: enzyme expressed in COS cells; read-out: IC50 (μM) ROCK-II. It is filed as biochemical. How it is done:
as §1, §2, §3

Test [6] has as its system trachea specimen contracted with acetylcholine. Nature of the test: Effect on contraction by acetylcholine of trachea specimen removed from guinea pig. Particulars: Cavia porcellus, acetylcholine 10^−6 M contraction, 50% relaxation vs papaverine 10^−4 M maximum, read-out: Trachea relaxing action.
Description: Male Hartley guinea pigs (body weight 260-390 g) were anesthetized by the peritoneal administration of pentobarbital sodium (100 mg/kg) and exsanguinated, whereafter trachea was removed. The anterior cartilage of the trachea was opened and the band was cut in a 3 mm width strip to give a specimen. The specimen was hung in a Magnus bath (40 ml) filled with Krebs-Henseleit solution (NaCl 117 mM; KCl 4.7 mM; CaCl2 2.5 mM; MgSO4 1.2 mM; NaHCO3 24.8 mM; KH2PO4 1.2 mM; glucose 11.0 mM) at a load of 1 g. The Magnus bath was constantly bubbled with a mixed gas (95% O2+5% CO2 gas). The tension of the strip was measured with an isomeric transducer (TB-611T, Nippon Koden) and depicted on a recorder (Ti-102, Tokai Irika).
Test [7] relates to Human SK-Mel-28 melanoma. Nature of the test: Inhibition of cell growth of SK-Mel-28 melanoma. It is filed as cell-based. The conditions noted are these: 72 hours, MTT. Here is the method: Inhibition of Cell Growth of SK-Mel-28 Melanoma
Human SK-Mel-28 melanoma (10^4 cells) and the test compound were suspended in RPMI1640 medium containing 100 μl of 10% FBS and incubated in a 96 well plate at 37° C. under 5% CO2 gas for 72 hours. After the incubation, 10 μl of MTT (5 mg/ml) was added to each well and the cells were incubated at 37° C. under 5% CO2 gas for 4 hours. Then, 10% sodium dodecyl sulfate and 0.01 N hydrochloric acid solution were each added by 10 μl to respective wells. After the plate was stood overnight, absorbance at 570 nm was measured using a microplate reader and the inhibition percentage (% cytotoxicity) was calculated by the following formula.
The cytotoxicity against human cultured tumor cells was confirmed by pigment method (Carmichael et al., Cancer Res., 47, 936-942, 1987: Mosman, J. Immunol. Methods, 65, 55-63, 1983) using 3-(4,5-dimethylthiazol-2-yl)-2,5-diphenyltetrazolium bromide (MTT).
The test compound was dissolved in dimethyl sulfoxide and diluted with RPMI 1640 medium before use. The final dimethyl sulfoxide concentration was adjusted to not more than 0.25%.

T3 sequence (P70336 whole entry): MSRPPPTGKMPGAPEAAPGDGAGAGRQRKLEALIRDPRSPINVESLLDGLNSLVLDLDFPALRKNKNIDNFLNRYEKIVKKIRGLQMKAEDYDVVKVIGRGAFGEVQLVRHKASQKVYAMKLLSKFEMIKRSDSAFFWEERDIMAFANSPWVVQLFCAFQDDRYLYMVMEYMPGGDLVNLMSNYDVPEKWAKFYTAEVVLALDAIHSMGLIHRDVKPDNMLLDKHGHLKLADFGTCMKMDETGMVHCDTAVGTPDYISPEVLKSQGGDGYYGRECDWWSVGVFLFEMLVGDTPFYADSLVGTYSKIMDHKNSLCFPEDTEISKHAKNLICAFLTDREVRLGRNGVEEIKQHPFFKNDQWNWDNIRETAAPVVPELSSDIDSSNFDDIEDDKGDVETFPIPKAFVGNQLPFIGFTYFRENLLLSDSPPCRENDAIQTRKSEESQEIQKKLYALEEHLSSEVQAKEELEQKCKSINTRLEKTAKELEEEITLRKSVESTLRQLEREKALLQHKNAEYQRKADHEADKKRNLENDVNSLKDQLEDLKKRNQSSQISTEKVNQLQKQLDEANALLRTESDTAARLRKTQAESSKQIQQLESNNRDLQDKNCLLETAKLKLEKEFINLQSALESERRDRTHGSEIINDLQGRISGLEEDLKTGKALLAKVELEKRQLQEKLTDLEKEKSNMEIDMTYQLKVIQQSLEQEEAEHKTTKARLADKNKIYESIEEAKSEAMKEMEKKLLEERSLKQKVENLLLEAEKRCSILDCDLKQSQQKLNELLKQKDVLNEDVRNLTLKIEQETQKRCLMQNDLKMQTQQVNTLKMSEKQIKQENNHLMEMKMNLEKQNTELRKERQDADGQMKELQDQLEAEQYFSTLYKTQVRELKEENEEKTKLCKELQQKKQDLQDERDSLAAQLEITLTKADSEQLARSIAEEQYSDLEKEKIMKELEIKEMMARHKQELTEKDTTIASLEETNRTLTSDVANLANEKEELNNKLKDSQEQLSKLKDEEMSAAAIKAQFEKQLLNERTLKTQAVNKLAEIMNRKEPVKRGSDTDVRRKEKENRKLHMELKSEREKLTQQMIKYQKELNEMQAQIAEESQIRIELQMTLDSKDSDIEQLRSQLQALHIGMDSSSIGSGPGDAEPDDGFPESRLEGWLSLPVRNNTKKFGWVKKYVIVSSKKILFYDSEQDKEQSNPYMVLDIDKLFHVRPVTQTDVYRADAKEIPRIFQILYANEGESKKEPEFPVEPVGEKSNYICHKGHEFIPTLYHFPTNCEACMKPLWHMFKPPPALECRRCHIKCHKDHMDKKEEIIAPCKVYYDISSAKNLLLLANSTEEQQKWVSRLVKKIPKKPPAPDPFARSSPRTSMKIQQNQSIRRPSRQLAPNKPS
T1 sequence (Q13464 whole entry): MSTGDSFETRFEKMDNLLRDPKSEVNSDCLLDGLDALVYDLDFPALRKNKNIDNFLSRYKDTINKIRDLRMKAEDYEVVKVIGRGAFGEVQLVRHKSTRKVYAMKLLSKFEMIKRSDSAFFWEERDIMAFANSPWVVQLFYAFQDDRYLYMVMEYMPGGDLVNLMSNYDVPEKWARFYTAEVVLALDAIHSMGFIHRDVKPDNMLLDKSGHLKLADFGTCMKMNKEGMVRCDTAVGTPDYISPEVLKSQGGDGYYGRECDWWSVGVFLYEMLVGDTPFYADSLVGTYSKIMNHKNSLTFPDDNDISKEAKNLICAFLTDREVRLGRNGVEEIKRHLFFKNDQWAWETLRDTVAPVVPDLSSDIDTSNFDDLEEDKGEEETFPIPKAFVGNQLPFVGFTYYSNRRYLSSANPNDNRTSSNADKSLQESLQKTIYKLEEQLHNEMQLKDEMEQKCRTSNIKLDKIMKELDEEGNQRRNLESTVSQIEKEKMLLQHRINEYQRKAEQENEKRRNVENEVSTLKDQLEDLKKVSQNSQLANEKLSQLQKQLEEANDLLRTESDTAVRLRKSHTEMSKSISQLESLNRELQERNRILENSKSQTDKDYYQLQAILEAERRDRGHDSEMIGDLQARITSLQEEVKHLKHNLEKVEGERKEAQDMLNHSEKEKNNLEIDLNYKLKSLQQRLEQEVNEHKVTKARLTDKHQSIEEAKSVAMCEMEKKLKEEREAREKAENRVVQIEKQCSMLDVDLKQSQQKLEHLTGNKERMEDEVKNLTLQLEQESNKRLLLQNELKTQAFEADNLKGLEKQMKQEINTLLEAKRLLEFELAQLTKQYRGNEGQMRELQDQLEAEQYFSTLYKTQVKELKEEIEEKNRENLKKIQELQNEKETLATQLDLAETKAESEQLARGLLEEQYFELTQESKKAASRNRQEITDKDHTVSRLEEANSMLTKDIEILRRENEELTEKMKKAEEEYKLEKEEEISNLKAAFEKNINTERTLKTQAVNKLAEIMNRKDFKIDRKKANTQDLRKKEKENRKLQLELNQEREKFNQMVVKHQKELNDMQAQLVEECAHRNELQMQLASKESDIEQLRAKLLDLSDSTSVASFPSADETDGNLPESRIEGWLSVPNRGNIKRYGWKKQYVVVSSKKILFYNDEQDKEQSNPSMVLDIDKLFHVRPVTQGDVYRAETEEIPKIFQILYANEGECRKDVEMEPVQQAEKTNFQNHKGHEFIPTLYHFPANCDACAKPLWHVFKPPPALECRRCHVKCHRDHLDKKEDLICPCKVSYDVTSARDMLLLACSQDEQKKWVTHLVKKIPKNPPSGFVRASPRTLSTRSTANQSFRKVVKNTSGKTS
T2 sequence (Q13464 whole entry): as above

In the case of `CC(N)[C@H]1CC[C@H](C(=O)Nc2ccncc2)CC1` (single isomer, unassigned; (+)) [Compound 80.2HCl.H2O, (+)-trans-4-(1-aminoethyl)-1-(4-pyridylcarbamoyl)cyclohexane], the “Increase in skin blood flow ± standard error (%)” value in test [1] is 135.0 ± 13.4%. Further, in test [2], the IC50 turned out to be 9600 nM.
As to `CC(N)[C@H]1CC[C@H](C(=O)Nc2ccnc3[nH]ccc23)CC1` (single isomer, unassigned; (+)) [Compound 109.2HCl, (+)-trans-N-(1H-pyrrolo[2,3-b]pyridin-4-yl)-4-(1-aminoethyl)cyclohexanecarboxamide], the IC50 in test [3] is 110 nM; in test [4], 0.095 µM; in test [5] it was 0.048 µM; in test [6], 43 nM; in test [2], 1600 nM; in test [7] it was 58000 nM.
